One block for each compound: values may come before it.
Key:
Female CD-1 mice = test: Bleomycin-induced lung fibrosis model in mice; type: in vivo
Description: Female CD-1 mice (Harlan, 25-30 g) are housed 4 per cage, given free access to food and water and allowed to acclimate for at least 7 days prior to test initiation. After the habituation phase, mice are lightly anesthetized with isoflurane (5% in 100% O2) and administered with bleomycin sulfate (0.01-5 U/kg, Henry Schein) via intratracheal instillation (Cuzzocrea S et al. Am J Physiol Lung Cell Mol. Physiol. 2007 May; 292(5):L1095-104. Epub 2007 Jan. 12.). Mice are returned to their cages and monitored daily for the duration of the experiment. Test compound or vehicle is delivered po, ip or sc daily. The route and frequency of dosing is based on previously determined pharmacokinetic properties. All animals are sacrificed using inhaled isoflurane 3, 7, 14, 21 or 28 days after bleomycin instillation. Following sacrifice, mice are intubated with a 20 gauge angiocatheter attached to a 1 ml syringe. Lungs are lavaged with saline to obtain bronchoalveolar lavage fluid (BALF) and then removed and fixed in 10% neutral buffered formalin for subsequent histopathological analysis. BALF is centrifuged for 10 min at 800×g to pellet the cells and the cell supernatant removed and frozen at −80° C. for subsequent protein analysis using the DC protein assay kit (Biorad, Hercules, Calif.) and soluble collagen analysis using Sircol (Biocolor Ltd, UK). BALF is analyzed for concentrations of inflammatory, pro-fibrotic and tissue injury biomarkers including transforming growth factor β1, hyaluronic acid, tissue inhibitor of metalloproteinase-1, matrix matelloproteinase-7, connective tissue growth factor and lactate dehydrogenase activity, using commercially available ELISA. The cell pellet is re-suspended in PBS. Total cell counts are then obtained using a Hemavet hematology system (Drew Scientific, Wayne, Pa.) and differential cells counts are determined using Shandon cytospin (Thermo Scientific, Waltham, Mass.). Lung tissue is stained using hematoxylin and eosin (H&E) and trichrome and lung fibrosis.is determined by semiquantitative histopathological scoring (Ashcroft T. et al. J. Clin. Path. 1988; 41; 4, 467-470.) using light microscopy (10× magnification) and quantitative, computer-assisted densitometry of collagen in lung tissue sections using light microscopy. The data are plotted using Graphpad prism and statistical differences between groups determined.

human LPA1 = target: T1, human LPA1 (Homo sapiens, UniProt Q92633); test: LPA1 calcium flux assay (HLPA1 Ca Flux); type: cell-based; details: Human LPA1 expressing CHO cells, stimulated with 10 nM LPA
T1 construct: the full-length cDNA for human LPA1 was obtained by PCR of the reverse transcription reaction; expressed in transfected cells
Method in brief: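 Compounds were fitted for IC50 from inhibition of the intracellular calcium rise evoked by 10 nM LPA. Test system: dye-loaded CHO cells stably transfected with human LPA1, serum-free overnight, with 30 min compound pretreatment at room temperature before stimulation.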

[1] = tested on: A2058 human melanoma cells; test: LPA1 chemotaxis assay; type: cell-based; details: 100 nM LPA, read-out: IC50, inhibition of LPA-driven chemotaxis
Protocol: Chemotaxis of the A2058 human melanoma cells was measured using the Neuroprobe ChemoTx® System plates (8 μm pore size, 5.7 mm diameter sites). The filter sites were coated with 0.001% fibronectin (Sigma) in 20 mM Hepes, pH 7.4 and allowed to dry. A2058 cells were serum-starved for 24 hours, then harvested with Cell Stripper and resuspended in DMEM containing 0.1% fatty-acid-free bovine serum albumin (BSA) to a concentration of 1×10^6/ml. Cells were mixed with an equal volume of test compound (2×) in DMEM containing 0.1% fatty-acid-free BSA and incubated at 37° C. for 15 minutes. LPA (100 nM in DMEM containing 0.1% fatty-acid-free BSA) or vehicle was added to each well of the lower chamber and 50 μl of the cell suspension/test compound mix was applied to the upper portion of the ChemoTx plate. Plates were incubated at 37° C. for three hours and then the cells removed from the upper portion by rinsing with PBS and scraping. The filter was dried then stained with HEMA 3 Staining System (Fisher Scientific). The absorbance of the filter was read at 590 nm and IC50s were determined using Symyx Assay Explorer.

[2] = chronic setting (14 and 28 day), single bleomycin (1.5 units/kg) instillation
[3] = chronic setting, repeated bleomycin (3.0-5.0 units/kg/week) instillations
[4] = chronic setting (14-days only), single bleomycin instillation (3.0 units)

T1 sequence (Q92633 whole entry): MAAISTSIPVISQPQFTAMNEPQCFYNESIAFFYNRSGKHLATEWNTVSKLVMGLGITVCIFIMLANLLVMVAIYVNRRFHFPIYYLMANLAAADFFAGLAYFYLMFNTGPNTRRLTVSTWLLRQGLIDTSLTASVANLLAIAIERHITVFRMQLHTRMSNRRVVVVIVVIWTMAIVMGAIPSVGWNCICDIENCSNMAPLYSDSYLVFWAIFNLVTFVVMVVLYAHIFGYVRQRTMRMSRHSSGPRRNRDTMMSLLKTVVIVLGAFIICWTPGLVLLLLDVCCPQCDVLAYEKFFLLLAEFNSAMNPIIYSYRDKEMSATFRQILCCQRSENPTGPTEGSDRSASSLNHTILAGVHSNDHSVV

IC50 (human LPA1): < 300 nM
IC50 [1]: < 300 nM
SMILES: Cc1noc(-c2ccc(-c3ccc(CC(=O)O)cc3)cc2)c1NC(=O)O[C@H](C)c1ccccc1Cl [Compound 1-88, (4′-{4-[(R)-1-(2-Chloro-phenyl)-ethoxycarbonylamino]-3-methyl-isoxazol-5-yl}-biphenyl-4-yl)-acetic acid]
efficacy at reducing lung tissue damage and fibrosis compared to pirfenidone (Female CD-1 mice; 14 day mouse bleomycin model): superior efficacy to pirfenidone
MMP7 concentration in BALF (Female CD-1 mice; acute setting (3 day)): significantly reduced
TGFβ1 concentration in BALF (Female CD-1 mice; acute setting (3 day)): significantly reduced
hyaluronan concentration in BALF (Female CD-1 mice; acute setting (3 day)): significantly reduced
lactate dehydrogenase activity (LDH; tissue injury marker) in BALF (Female CD-1 mice; acute setting (3 day)): significantly reduced
tissue inhibitor of metalloproteinase-1 (TIMP-1; pro-fibrotic marker) concentration in BALF (Female CD-1 mice; acute setting (3 day)): significantly reduced
total protein in broncheoalveolar lavage fluid (BALF) (Female CD-1 mice; acute setting (3 day)): significantly reduced
fibrosis (Female CD-1 mice; [2]): decreased
inflammatory cell influx (Female CD-1 mice; [2]): decreased
mouse body weight (Female CD-1 mice; [2]): maintained
lung fibrosis (Female CD-1 mice; [3]): decreased
pulmonary resistance (Female CD-1 mice; [3]): decreased

IC50 (human LPA1): < 300 nM
IC50 [1]: < 300 nM
SMILES: Cc1noc(-c2ccc(-c3ccc(CC(=O)O)cc3)cc2)c1NC(=O)O[C@H](C)c1ccccc1 [Compound 1-115]
lactate in the BALF (Female CD-1 mice; acute setting (3-day)): reduced
tissue inhibitor of metalloproteinase-1 (TIMP-1; pro-fibrotic marker) concentration in BALF (Female CD-1 mice; acute setting (3 day)): reduced
total protein in broncheoalveolar lavage fluid (BALF) (Female CD-1 mice; acute setting (3 day)): reduced
fibrosis (Female CD-1 mice; [4]): decreased
inflammatory cell influx (Female CD-1 mice; [4]): decreased
